Results reported in publication PMC10889512, “Pyrimidine Schiff Bases: Synthesis, Structural Characterization and Recent Studies on Biological Activities” (International Journal of Molecular Sciences, 2024).

Tests used:
HeLa = test: Neutral red uptake assay on HeLa; assay type: cell-based; details: Homo sapiens, 72 h treatment
Description: Based on the results obtained for the RPTEC cell line, the following concentrations of 4b–d were chosen to be applied to neoplastic cell lines: 0.1, 1, 10, 25, 50, and 100 µM. A172, AGS, CaCo-2, HeLa, and HepG2 cancer cell lines were used to perform a neutral red uptake assay. The obtained results were compared with a negative control (cell lines incubated without tested compounds), and half-maximal inhibitory concentration (IC50) values were calculated. Cell lines were plated in 96-well plates at a density of 1 × 10^4 cells/well. After 24 h incubation, which allowed the cells to attach and start to proliferate, the culture media were replaced with 4a–d dissolved in the appropriate medium at concentrations of 1, 10, 50, 100, 150 and 200 µM. […] Negative (1% DMSO in medium) and positive (1 µM staurosporine) controls were also included. Plates were incubated at 37 °C for 24, 48, and 72 h before the neutral red uptake assay. The neutral red uptake assay was performed as described by Repetto et al.. Briefly, the medium from all wells was discarded, the attached cells were washed with 100 µL PBS, and then 100 µL of neutral red working solution in medium (40 µg/mL) was added to each well. The neutral red solution was incubated overnight in the same conditions as the cells and centrifuged before being added to the cells. The plates were incubated for at least 2 h at 37 °C, 5% CO2, in a humidified atmosphere. Next, the neutral red medium was removed, and the cells were washed with 100 µL PBS. A 100 µL quantity of destain solution consisting of 50% ethanol, 1% glacial acetic acid, and deionized water was added to each well. Plates were incubated for 30 min with constant shaking on a horizontal shaker at 37 °C. Absorption was measured at 540 nm excitation. The cells’ viability was calculated by comparing results from experimental sets with negative controls according to the formula: % viability=ODtest substance−ODblind/ODnegative control−ODblind×100

AGS cells = test: Flow cytometry FDA/PI staining, cell viability, AGS; assay type: cell-based, human
Description: A detailed analysis of potential cytotoxic mechanisms has been performed only for the selected compound (4b) where the IC50 values under 100 µM were detected in the screening NR assay. Flow cytometry was performed on the A172 and AGS cell lines. Cells were incubated with compound 4b at IC50 for 24, 48, and 72 h before analysis. Fluorescein diacetate (FDA) and propidium iodide (PI) were used as indicators for viable and nonviable (necrotic) cells. Most of the events were captured in the first and the fourth quadrant, which represent viable and necrotic cells, respectively. […] Similar results were obtained for the AGS cell line (Figure 8B), where the viability was 60.95%/55.10%/44.99% after the same incubation periods, respectively. Some events occurred in the second quadrant, but it was difficult to unequivocally categorize them into viable or nonviable (apoptotic/necrotic) cell populations, and thus more sensitive dyes, able to distinguish between the types of cell death, were needed.
Two approaches for flow cytometry were used—FDA/PI staining to determine cell viability and annexin V/PI staining for cell death pathway determination.
For cell viability determination, cells were plated in 6-well plates at a density of 1 × 10^5 cells/well and incubated for 24 h at 37 °C, 5% CO2 and in a humidified atmosphere. Next, cells were treated with 4b at a concentration calculated as IC50 in neutral red uptake assay. After 24, 48, and 72 h incubation, the cells (either adhered or floating) were collected, centrifuged at 1600 rpm, and washed with PBS. FDA and PI stock solution at a 1 mM concentration were prepared in DMSO and H2O, respectively. After centrifugation and supernatant discarding, cells were stained with FDA at a final concentration of 1 µM prepared in PBS and incubated in the dark. After 15 min, they were centrifuged at 1600 rpm, resuspended in ice-cold PBS, and placed on ice. Samples were stained with 1 µM PI for 2 min before the cytometry evaluation. […]

E. coli 25922 = test: Antimicrobial activity assay, microdilution; assay type: cell-based, Escherichia coli; details: concentration range from 0.5 µg/mL to 256 µg/mL
Description: In vitro antimicrobial and antifungal activity was screened using microdilution and modified Richard’s medium. The assay was performed for compounds 4a, 4b, 4c, and 4d with seven reference microbial strains from ATTC (E. coli 25922, S. aureus 43300, K. pneumoniae 700603, A. baumannii 19606, P. aeruginosa 27853, E. faecalis 29212, and C. albicans 10231).
Seven reference strains from the ATCC collection (Escherichia coli 25922, Staphylococcus aureus 43300, Klebsiella pneumoniae 13883, Acinetobacter baumannii 19606, Pseudomonas aeruginosa 27853, Enterococcus faecalis 29212, and Candida albicans 10231) were used. The assay was performed according to a modified version of Richard et al.’s protocol and ISO standards 20776-1:2019 and 16256:2021 [78, 79]. Microdilution with spectrophotometric measurement was used to calculate MIC50 (minimal inhibitory concentration which decreased the microorganisms’ viability to 50%) values. Briefly, compounds were prepared 100× concentrated in DMSO, and during the whole experiment, they were diluted to 1× with TSB. Serial dilutions of tested compounds were made directly on plates at a concentration range of 0.5 to 256 µg/mL. Microorganisms were incubated for 24 h at 37 °C (bacteria) or 25 °C (yeast) on Petri dishes with TSA. The bacteria/yeast suspensions were prepared at a density 5 × 10^5 CFU/mL (for bacteria) or 0.5–2.5 × 10^5 CFU/mL (for yeast) with TSB. Also, appropriate controls were contained in the experiment: the positive control consisted of a specific strain in TSB, and the negative control was TSB alone. To ensure that used strains were not modified and were still responding to antibacterial/antifungal compounds established by EUCAST, additional tests were conducted with levofloxacin, gentamicin, and amphotericin B. Microplates were incubated on a shaker for 24 h at 37 ± 1 °C or 25 ± 1 °C for the bacteria and yeast strains, respectively. After the incubation, spectrophotometric measurement was performed at 580 nm. MIC50 was calculated by comparing the results obtained for experimental sets with positive controls. Next, 50 µL aliquots of 1% (m/v) TTC solution were added to each well. The plates were incubated on the shaker for 24 h at 37/25 °C. In living microbial cells, colourless TTC is converted into red formazan crystals, which allows for visual observation and MBC/MFC (minimal bactericidal/fungicidal concentration) value assessment.

Question: With `Cc1nc(-c2ccccc2)nc(Nc2ccc(F)cc2)c1C=Nc1cccc(Cl)c1` [compound 4b, 5-{[(3-chlorophenyl)imino]methyl}-N-(4-fluorophenyl)-6-methyl-2-phenylpyrimidin-4-amine] as the compound, how does the IC50 (HeLa) read?
Answer: Its IC50 is > 100 µM.

Question: And the “Q1 events (viable cells; viability), FDA/PI” value (shortened to “Q1 events”) (AGS cells; at IC50, 24 h)?
Answer: The value was 60.95%.

Question: And the “Q1 events” value (AGS cells; at IC50, 48 h)?
Answer: Its value is 55.10%.

Question: What about the “Q1 events” value (AGS cells; at IC50, 72 h) of the same compound?
Answer: Its value is 44.99%.

Question: And the “MIC and MBC/MFC activity” value (E. coli 25922)?
Answer: Its value is “Neither MIC nor MBC/MFC activity was observed”.
